# Assay results taken from US4659859A, “2-alkoxy-1-alkoxy phosphoryl dichlorides” (priority 1986, dated 1987).
# Where a name gives a salt, the structure may show the parent alone.
# Key:
# [1] = test system: leukemic cells; settings: Tidwell et al., Blood, 57, 794 (1981); cited from earlier work
# [2] = test system: carageenin-induced edema (rat paw swelling); experiment: Carageenin-induced edema (acute inflammation) model, rat paw swelling; format: in vivo; settings: 25 mg/kg oral, at 4 hours, group of 5 rats
# Text: It is well known that free arachidonic acid may be processed into potent inflammatory mediators such as the leukotrienes, prostaglandins, thromboxane A2 and prostacyclin. Inhibition of the release of arachidonic acid could result in a lowered inflammatory response.
# [3] = test system: release of arachidonic acid from membrane phospholipids (rabbit neutrophils); experiment: Inhibition of release of arachidonic acid from membrane phospholipids in glycogen-elicited rabbit neutrophils; format: cell-based; settings: A-23187 0.5 mcg/ml activation, 5 minutes pretreatment at 37° C.
# Protocol: In this procedure, glycogen-elicited rabbit neutrophils are labelled with ^14 C-arachidonic acid by incubation for one hour at 37° C. and followed by treatment with the compound under test at 37° C. for 5 minutes. The cells were then activated by addition of 0.5 mcg/ml of A-23187 (an ionophore) for 5 minutes. Cellular metabolism was stopped; the membrane lipids extracted; and the extracted lipids chromatographed on TLC plates. Assays were conducted for free ^14 C-arachidonic acid and hydroxy^14 C-eicosatetraenoic acid (HETES) using a radiochromatogram scanner.
# [4] = test system: X-5563 plasma cell myeloma; experiment: Antitumor activity vs X-5563 plasma cell myeloma in mice; format: in vivo; settings: daily for 10 days after inoculation
# Text: Compounds according to formula II above are also active against transplanted tumors in mice. Table II which follows gives the results of testing (d,1)-2-ethoxy-1-[(2-trimethylaminoethoxy)phosphinyloxy]-eicosane,hydroxy inner salt, (A), against several such tumors. In the table, column 1 gives the name of the tumor, column 2 the dosage levels, column 3 toxic deaths, column 4, the percent tumor growth inhibition and column 5, the dosage schedule or regimen. Ten mice were given each dosage I.P. and a group of 20 mice used as controls.
# Table III gives the results obtained by comparing the activity of the racemate (d,1)-2-ethoxy-1-[(2-trimethylaminoethoxy)phosphinyloxy]eicosane,hydroxy inner salt (A), the L-(-)enantiomer (B) and the D-(+)enantiomer (C) versus X-5563, a plasma cell myeloma.
# [5] = test system: spontaneously hypertensive rats (SHR); experiment: Blood pressure and heart rate in spontaneously hypertensive rats, femoral artery cannula; format: in vivo, rat; settings: for Blood pressure: femoral artery cannula
# Text: (§1) The above compounds are also active in lowering the blood pressure of spontaneously hypertensive rats (SHR). […] In the table, column 1 gives the compound used, column 2 the dose level, column 3, the route of administration, column 4, number of rats, column 5, the time of blood pressure measurement, column 6, blood pressure in mm (Hg), and column 7, heart rate.
# **B.P. measured by femoral artery cannula.
# [6] = test system: spontaneously hypertensive rats (SHR); experiment: Blood pressure and heart rate in spontaneously hypertensive rats, tail cuff method; format: in vivo, rat; settings: administered subcutaneously, various dose levels
# Text: as §1
# *B.P. measured by tail cuff method.
# [7] = 3 mg/kg I.V., 0 hours (baseline)
# [8] = 10 mg/kg I.V., 0 hours (baseline)
smiles,measurement,setting,value
CCCCCCCCCCCCCCCCCCOCC(COP(=O)([O-])OCC[N+](C)(C)C)OC (stereo not drawn),inhibits the proliferation of leukemic cells,[1],inhibits the proliferation of leukemic cells
"CCCCCCCCCCCCCCCCCCC(COP(=O)([O-])OCC[N+](C)(C)C)OC (racemic) [Compound 7, (d,l)-2-Methoxy-1-[(2-trimethylaminoethoxy)phosphinyloxy]eicosane, hydroxy inner salt]",inhibition of rat paw swelling,[2],68%
same,inhibition of the release of arachidonic acid (AA) from phospholipids,[3],88%
same,inhibition of the total production of free AA and HETES,[3],100%
"CCCCCCCCCCCCCCCCCC[C@@H](COP(=O)([O-])OCC[N+](C)(C)C)OCC [Compound 1, D-2-Ethoxy-1-[(2-trimethylaminoethoxy)phosphinyloxy]eicosane, hydroxy inner salt]",Percent inhibition of Tumor growth,[4]; 17 mg/kg,76%
same,Toxic deaths,[4]; 17 mg/kg,2/10
same,Percent inhibition of Tumor growth,[4]; 25 mg/kg,95%
same,Toxic deaths,[4]; 25 mg/kg,1/10
same,Percent inhibition of Tumor growth,[4]; 35 mg/kg,Toxic
same,Toxic deaths,[4]; 35 mg/kg,5/10
same,Percent inhibition of Tumor growth,[4]; 50 mg/kg,Toxic
same,Toxic deaths,[4]; 50 mg/kg,10/10
same,Heart Rate,[5]; [7],326 beats/min
same,Blood pressure,[5]; [7],197 mm Hg
same,Heart Rate,"[5]; 3 mg/kg I.V., 1.0 hours",376 beats/min
same,Blood pressure,"[5]; 3 mg/kg I.V., 1.0 hours",194 mm Hg
same,Heart Rate,"[5]; 3 mg/kg I.V., .08 hours",373 beats/min
same,Blood pressure,"[5]; 3 mg/kg I.V., .08 hours",197 mm Hg
same,Heart Rate,"[5]; 3 mg/kg I.V., .25 hours",400 beats/min
same,Blood pressure,"[5]; 3 mg/kg I.V., .25 hours",200 mm Hg
same,Heart Rate,"[5]; 3 mg/kg I.V., .5 hours",346 beats/min
same,Blood pressure,"[5]; 3 mg/kg I.V., .5 hours",188 mm Hg
same,Heart Rate,[5]; [8],345 beats/min
same,Blood pressure,[5]; [8],183 mm Hg
same,Heart Rate,"[5]; 10 mg/kg I.V., 1.0 hours",355 beats/min
same,Blood pressure,"[5]; 10 mg/kg I.V., 1.0 hours",178 mm Hg
same,Heart Rate,"[5]; 10 mg/kg I.V., .08 hours",360 beats/min
same,Blood pressure,"[5]; 10 mg/kg I.V., .08 hours",185 mm Hg
same,Heart Rate,"[5]; 10 mg/kg I.V., .25 hours",360 beats/min
same,Blood pressure,"[5]; 10 mg/kg I.V., .25 hours",184 mm Hg
same,Heart Rate,"[5]; 10 mg/kg I.V., .5 hours",345 beats/min
same,Blood pressure,"[5]; 10 mg/kg I.V., .5 hours",177 mm Hg
"CCCCCCCCCCCCCCCCCC[C@H](COP(=O)([O-])OCC[N+](C)(C)C)OCC [Compound 2, L-2-Ethoxy-1-[(2-trimethylaminoethoxy)phosphinyloxy]eicosane, hydroxy inner salt]",Percent inhibition of Tumor growth,[4]; 2.5 mg/kg,18%
same,Toxic deaths,[4]; 2.5 mg/kg,1/10
same,Percent inhibition of Tumor growth,[4]; 5 mg/kg,44%
same,Toxic deaths,[4]; 5 mg/kg,1/10
same,Percent inhibition of Tumor growth,[4]; 10 mg/kg,53%
same,Toxic deaths,[4]; 10 mg/kg,0/10
same,Percent inhibition of Tumor growth,[4]; 20 mg/kg,67%
same,Toxic deaths,[4]; 20 mg/kg,0/10
same,hypotensive effects in SHR (in words),[6],hypotensive effects
same,Heart Rate,[5]; [7],340 beats/min
same,Blood pressure,[5]; [7],177 mm Hg
same,Heart Rate,"[5]; 3 mg/kg I.V., 1.0 hours",380 beats/min
same,Blood pressure,"[5]; 3 mg/kg I.V., 1.0 hours",162 mm Hg
same,Heart Rate,"[5]; 3 mg/kg I.V., .08 hours",385 beats/min
same,Blood pressure,"[5]; 3 mg/kg I.V., .08 hours",107 mm Hg
same,Heart Rate,"[5]; 3 mg/kg I.V., .25 hours",367 beats/min
same,Blood pressure,"[5]; 3 mg/kg I.V., .25 hours",144 mm Hg
same,Heart Rate,"[5]; 3 mg/kg I.V., .5 hours",370 beats/min
same,Blood pressure,"[5]; 3 mg/kg I.V., .5 hours",162 mm Hg
